Measured values from paper PMC7433010, “Exploration of multi‐target effects of 3‐benzoyl‐5‐hydroxychromen‐2‐one in Alzheimer’s disease cell and mouse models” (Aging Cell, 2020).

Tests used:
NRF2 [1] = assay: Western blot of NRF2 in ∆K280 TauRD‐DsRed SH‐SY5Y cells; format: cell-based, human; conditions: 1 µM
Description: To knock down CREB expression in ∆K280 TauRD-DsRed SH-SY5Y cells, lentiviral short hairpin RNA (shRNA) targeting CREB (TRCN0000226466), NRF2 (TRCN0000007558), and a negative control scrambled (TRC2.Void) were obtained from National RNAi Core Facility, IMB/GRC, Academia Sinica, Taipei, Taiwan. On day 1, cells were plated on 6-well plates (for protein analysis) or 24-well plates (for neurite outgrowth analysis) in the presence of retinoic acid as described. On the second day, the cells were infected with lentivirus (multiplicity of infection: 3) in medium with polybrene (8 µg/mL; Sigma-Aldrich). On day 3, the culture medium was changed and the cells were pretreated with LM-031 (1 µM) for 8 h, followed by induction of ∆K280 TauRD-DsRed expression. On day 9, the cells were collected for NRF2, CREB, pCREB, and cleaved CASP3 protein analysis or analyzed for neurite outgrowth as described.
(§1) Total proteins from ∆K280 TauRD-DsRed SH-SY5Y cells were obtained using a RIPA buffer containing 50 mM Tris-HCl (pH8.0), 150 mM NaCl, 2 mM EDTA (pH8.0), 50 mM NaF, 0.1% SDS, 0.5% sodium deoxycholate, 1% NP40, and a protease inhibitor cocktail (Sigma-Aldrich). After sonication and sitting on ice for 20 min, the lysates were centrifuged at 14,000 × g for 30 min at 4°C. Protein concentrations were determined using a protein assay kit (Bio-Rad, Hercules, CA, USA), with albumin as a standard. Total proteins (20 µg) were electrophoresed on 10% or 12% SDS-polyacrylamide gel and transferred onto polyvinylidene difluoride (PVDF) membranes (Sigma-Aldrich) through reverse electrophoresis. […] Subsequently, immune complexes were detected using a horseradish peroxidase-conjugated goat anti-mouse or goat anti-rabbit IgG antibody (1:5000; GeneTex, Irvive, CA, USA) and a chemiluminescent substrate (Millipore).

BAX = assay: Western blot of BAX in ∆K280 TauRD‐DsRed SH‐SY5Y cells; format: cell-based, human; conditions: induced untreated 120%, uninduced 100%
Description: as §1

NeuN = assay: Immunohistochemistry of NeuN in hippocampus of STZ‐treated 3 × Tg‐AD mice; format: in vivo, mouse; conditions: – STZ 100%
Description: (§2) Mice harboring APPSwe, PS1M146V, and […] transgenes (3×Tg-AD) (Oddo et al., 2003) were purchased from the Jackson Laboratory (004807; Bar Harbor, ME, USA). Six-month-old male homozygous 3×Tg-AD mice were group housed at 20–25°C and 60% relative humidity under a daily 12-h light/12-h dark cycle, with assess to food and water ad libitum. Mice were randomly divided into 3 groups: – streptozocin (STZ), STZ, and STZ/LM-031 (n = 10 per group). STZ-induced hyperglycemia was used to accelerate the development of AD phenotype (Chen et al., 2014). Briefly, the mice were fasted for 12 h each day prior to intraperitoneal (i.p.) injection of STZ ([…]; Sigma-Aldrich) or vehicle (0.1 M sodium citrate pH4.5) for 4 times (days 2, 3, 9, and 10) (Chen et al., 2019). Mouse body weight was measured and blood glucose level was measured on days 1, 8, 15, 22, and 29 using a blood glucose meter (Bioland Technology, Taipei, Taiwan). LM-031 (40 mg/kg) or vehicle (DMSO:Cremophor EL:0.9% saline = 1:2:7) was intraperitoneally injected every day for 22 days from days 15 to 36. All animal procedures were ethically approved by the Institutional Animal Care and Use Committee of National Taiwan Normal University, Taipei, Taiwan (Permit Number: 103002) and were conducted in compliance with the ARRIVE (Animal Research: Reporting In Vivo Experiments) guidelines.
Mouse brains were removed, postfixed in 4% paraformaldehyde overnight, and cryopreserved in 30% sucrose solution at 4°C. Series of coronal brain sections (30 µm) were cut in a cryostat (Leica RM2125 RTS, Leica, Wetzlar, Germany). Heat-induced antigen retrieval for immunohistochemistry (IHC) was performed using antigen retrieval buffer (pH9.0, Thermo Fisher Scientific) to break methylene bridges and expose antigenic sites, allowing antibodies to bind. […] The sections were then washed and detected by using the UltraVision™ Quanto detection system containing horseradish peroxidase and chromogenic diaminobenzidine substrate (Thermo Fisher Scientific). […]

NRF2 [2] = assay: Western blot of NRF2 in hippocampus of STZ‐treated 3 × Tg‐AD mice; format: in vivo, mouse; conditions: STZ 53%, – STZ 100%
Description: (§3) In addition, isolated hippocampal and cortex tissues from transgenic mice (as described in Animal studies) were homogenized and extracted proteins (10 µg) were separated and blotted. After being blocked, the membranes were probed with antibody against mouse NRF2 (1:500; Sigma-Aldrich), CREB (1:500; Millipore), pCREB (S133) (1:1000; Millipore), or GAPDH (1:1000; MDBio), and the immune complexes detected as described above.
as §2, with “LM-031 (40 mg/kg) or vehicle (DMSO:Cremophor EL:0.9% saline = 1:2:7) was intraperitoneally injected every day for 22 days from days 15 to 36. All animal procedures were ethically approved by the Institutional Animal Care and Use Committee of National Taiwan Normal University, Taipei, Taiwan (Permit Number: 103002) and were conducted in compliance with the ARRIVE (Animal Research: Reporting In Vivo Experiments) guidelines.” left out

pCREB = assay: Western blot of pCREB in hippocampus of STZ‐treated 3 × Tg‐AD mice; format: in vivo, mouse; conditions: STZ 68%, – STZ 100%
Description: as §3
as §2, with “LM-031 (40 mg/kg) or vehicle (DMSO:Cremophor EL:0.9% saline = 1:2:7) was intraperitoneally injected every day for 22 days from days 15 to 36. All animal procedures were ethically approved by the Institutional Animal Care and Use Committee of National Taiwan Normal University, Taipei, Taiwan (Permit Number: 103002) and were conducted in compliance with the ARRIVE (Animal Research: Reporting In Vivo Experiments) guidelines.” left out

O=C(c1ccccc1)c1cc2c(O)cccc2oc1=O [LM‐031, 3‐benzoyl‐5‐hydroxychromen‐2‐one]
NRF2 protein level (NRF2 [1]; induced untreated 75%, uninduced 100%): 109% | NRF2 level (NRF2 [1]; NRF2‐specific shRNA‐infected cells, untreated 74%): 98% | NRF2 level (NRF2 [1]; scrambled shRNA‐infected cells, untreated 70%, uninduced 100%): 105% | BAX expression (BAX): 76% | NeuN level, CA1 (NeuN; STZ 89%): 96% | NeuN level, dentate gyrus (DG) (NeuN; STZ 90%): 97% | NeuN level, CA3 (NeuN; STZ 91%): 95% | NRF2 level in hippocampus (NRF2 [2]): 92% | pCREB level in hippocampus (pCREB): 110%
